Laboratory results reported in patent US20130115171A1, “NAV1.7-RELATED ASSAYS” (priority 2011, published 2013).
Entries after “also recorded” stand apart in the source; their conditions may differ. Read-outs that look alike come from different tables or passages of the source.

Tests used:
male rats = details: rat, in vivo
Protocol: Veratridine was injected intra-plantar at 30 micrograms.
Known preclinical and clinical analgesics were tested to see if they could prevent veratridine-induced behaviors.

male CD1 mice = format: in vivo, mouse
NaV1.7 [1] = format: in vivo, mouse; details: for Flinching response to paw injection: one microgram
Text: Activation of one, some, or all of the nine sodium channel isoforms might produce painful behaviors. […] All behavioral experiments were done with the observer blinded as to the mouse genotype or treatment.

NaV1.3 = NaV1.3 (Rattus norvegicus, UniProt P08104); details: read-out: TTX IC50; cited from earlier work
NaV1.4 = NaV1.4 (Rattus norvegicus, UniProt P15390); details: read-out: TTX IC50; cited from earlier work
NaV1.6 = NaV1.6 (Rattus norvegicus, UniProt O88420); details: read-out: TTX IC50; cited from earlier work
NaV1.7 [2] = molecular target: NaV1.7 (Rattus norvegicus, UniProt O08562); details: read-out: TTX IC50; cited from earlier work
NaV1.8 = NaV1.8 (Rattus norvegicus, UniProt Q62968); details: read-out: TTX IC50; cited from earlier work
hNaV1.7 = hNaV1.7 (Homo sapiens, UniProt Q15858)
hNaV1.7, sequence (Q15858 whole entry): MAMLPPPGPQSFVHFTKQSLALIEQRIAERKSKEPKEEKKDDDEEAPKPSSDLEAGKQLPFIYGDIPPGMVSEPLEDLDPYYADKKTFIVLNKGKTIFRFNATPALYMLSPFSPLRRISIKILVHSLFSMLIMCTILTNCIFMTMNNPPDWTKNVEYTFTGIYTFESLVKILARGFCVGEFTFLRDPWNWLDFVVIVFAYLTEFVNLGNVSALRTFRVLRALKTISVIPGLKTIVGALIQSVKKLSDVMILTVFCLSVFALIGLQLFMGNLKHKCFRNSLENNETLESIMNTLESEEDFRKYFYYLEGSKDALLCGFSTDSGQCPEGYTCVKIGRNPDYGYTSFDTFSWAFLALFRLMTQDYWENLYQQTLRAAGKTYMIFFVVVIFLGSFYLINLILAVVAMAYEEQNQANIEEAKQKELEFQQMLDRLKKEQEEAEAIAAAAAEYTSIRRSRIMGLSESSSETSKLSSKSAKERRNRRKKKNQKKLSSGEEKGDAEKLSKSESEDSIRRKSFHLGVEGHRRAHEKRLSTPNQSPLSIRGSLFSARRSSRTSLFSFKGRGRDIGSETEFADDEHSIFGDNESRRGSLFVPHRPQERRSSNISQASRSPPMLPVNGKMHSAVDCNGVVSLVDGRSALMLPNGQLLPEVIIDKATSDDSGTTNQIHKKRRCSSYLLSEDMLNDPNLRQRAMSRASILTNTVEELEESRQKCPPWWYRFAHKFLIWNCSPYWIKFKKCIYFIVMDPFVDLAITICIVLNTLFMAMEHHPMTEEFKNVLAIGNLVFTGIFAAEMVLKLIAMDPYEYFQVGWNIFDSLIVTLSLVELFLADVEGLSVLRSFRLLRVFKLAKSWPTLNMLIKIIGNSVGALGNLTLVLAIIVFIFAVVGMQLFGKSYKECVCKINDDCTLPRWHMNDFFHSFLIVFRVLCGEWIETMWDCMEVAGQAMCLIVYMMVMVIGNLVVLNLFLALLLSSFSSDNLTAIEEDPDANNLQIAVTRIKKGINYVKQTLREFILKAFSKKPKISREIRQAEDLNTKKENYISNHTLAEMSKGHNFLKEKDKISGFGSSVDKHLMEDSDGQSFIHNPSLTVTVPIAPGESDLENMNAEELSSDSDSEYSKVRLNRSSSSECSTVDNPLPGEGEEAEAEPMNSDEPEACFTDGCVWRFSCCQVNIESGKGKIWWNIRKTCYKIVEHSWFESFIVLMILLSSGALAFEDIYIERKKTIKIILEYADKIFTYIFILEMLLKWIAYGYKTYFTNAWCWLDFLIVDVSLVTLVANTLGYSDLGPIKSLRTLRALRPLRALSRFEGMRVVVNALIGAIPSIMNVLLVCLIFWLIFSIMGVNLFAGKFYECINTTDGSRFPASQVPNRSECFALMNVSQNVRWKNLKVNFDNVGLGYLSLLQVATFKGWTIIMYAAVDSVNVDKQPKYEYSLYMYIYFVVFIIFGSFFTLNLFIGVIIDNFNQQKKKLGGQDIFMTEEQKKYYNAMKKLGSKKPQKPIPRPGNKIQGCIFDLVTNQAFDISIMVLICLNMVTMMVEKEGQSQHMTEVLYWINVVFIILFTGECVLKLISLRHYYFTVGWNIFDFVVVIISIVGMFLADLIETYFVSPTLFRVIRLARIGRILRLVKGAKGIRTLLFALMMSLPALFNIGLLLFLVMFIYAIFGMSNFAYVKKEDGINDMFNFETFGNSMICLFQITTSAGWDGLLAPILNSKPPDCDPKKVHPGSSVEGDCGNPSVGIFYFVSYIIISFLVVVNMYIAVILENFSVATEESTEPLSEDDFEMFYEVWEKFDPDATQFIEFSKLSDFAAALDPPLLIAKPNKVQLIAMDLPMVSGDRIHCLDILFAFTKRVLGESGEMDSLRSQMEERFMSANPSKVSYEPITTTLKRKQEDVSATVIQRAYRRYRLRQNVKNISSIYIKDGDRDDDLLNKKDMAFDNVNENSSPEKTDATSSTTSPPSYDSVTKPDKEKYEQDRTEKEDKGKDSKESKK

NaV1.7 (Rattus norvegicus, UniProt O08562), sequence (O08562 whole entry, looked up): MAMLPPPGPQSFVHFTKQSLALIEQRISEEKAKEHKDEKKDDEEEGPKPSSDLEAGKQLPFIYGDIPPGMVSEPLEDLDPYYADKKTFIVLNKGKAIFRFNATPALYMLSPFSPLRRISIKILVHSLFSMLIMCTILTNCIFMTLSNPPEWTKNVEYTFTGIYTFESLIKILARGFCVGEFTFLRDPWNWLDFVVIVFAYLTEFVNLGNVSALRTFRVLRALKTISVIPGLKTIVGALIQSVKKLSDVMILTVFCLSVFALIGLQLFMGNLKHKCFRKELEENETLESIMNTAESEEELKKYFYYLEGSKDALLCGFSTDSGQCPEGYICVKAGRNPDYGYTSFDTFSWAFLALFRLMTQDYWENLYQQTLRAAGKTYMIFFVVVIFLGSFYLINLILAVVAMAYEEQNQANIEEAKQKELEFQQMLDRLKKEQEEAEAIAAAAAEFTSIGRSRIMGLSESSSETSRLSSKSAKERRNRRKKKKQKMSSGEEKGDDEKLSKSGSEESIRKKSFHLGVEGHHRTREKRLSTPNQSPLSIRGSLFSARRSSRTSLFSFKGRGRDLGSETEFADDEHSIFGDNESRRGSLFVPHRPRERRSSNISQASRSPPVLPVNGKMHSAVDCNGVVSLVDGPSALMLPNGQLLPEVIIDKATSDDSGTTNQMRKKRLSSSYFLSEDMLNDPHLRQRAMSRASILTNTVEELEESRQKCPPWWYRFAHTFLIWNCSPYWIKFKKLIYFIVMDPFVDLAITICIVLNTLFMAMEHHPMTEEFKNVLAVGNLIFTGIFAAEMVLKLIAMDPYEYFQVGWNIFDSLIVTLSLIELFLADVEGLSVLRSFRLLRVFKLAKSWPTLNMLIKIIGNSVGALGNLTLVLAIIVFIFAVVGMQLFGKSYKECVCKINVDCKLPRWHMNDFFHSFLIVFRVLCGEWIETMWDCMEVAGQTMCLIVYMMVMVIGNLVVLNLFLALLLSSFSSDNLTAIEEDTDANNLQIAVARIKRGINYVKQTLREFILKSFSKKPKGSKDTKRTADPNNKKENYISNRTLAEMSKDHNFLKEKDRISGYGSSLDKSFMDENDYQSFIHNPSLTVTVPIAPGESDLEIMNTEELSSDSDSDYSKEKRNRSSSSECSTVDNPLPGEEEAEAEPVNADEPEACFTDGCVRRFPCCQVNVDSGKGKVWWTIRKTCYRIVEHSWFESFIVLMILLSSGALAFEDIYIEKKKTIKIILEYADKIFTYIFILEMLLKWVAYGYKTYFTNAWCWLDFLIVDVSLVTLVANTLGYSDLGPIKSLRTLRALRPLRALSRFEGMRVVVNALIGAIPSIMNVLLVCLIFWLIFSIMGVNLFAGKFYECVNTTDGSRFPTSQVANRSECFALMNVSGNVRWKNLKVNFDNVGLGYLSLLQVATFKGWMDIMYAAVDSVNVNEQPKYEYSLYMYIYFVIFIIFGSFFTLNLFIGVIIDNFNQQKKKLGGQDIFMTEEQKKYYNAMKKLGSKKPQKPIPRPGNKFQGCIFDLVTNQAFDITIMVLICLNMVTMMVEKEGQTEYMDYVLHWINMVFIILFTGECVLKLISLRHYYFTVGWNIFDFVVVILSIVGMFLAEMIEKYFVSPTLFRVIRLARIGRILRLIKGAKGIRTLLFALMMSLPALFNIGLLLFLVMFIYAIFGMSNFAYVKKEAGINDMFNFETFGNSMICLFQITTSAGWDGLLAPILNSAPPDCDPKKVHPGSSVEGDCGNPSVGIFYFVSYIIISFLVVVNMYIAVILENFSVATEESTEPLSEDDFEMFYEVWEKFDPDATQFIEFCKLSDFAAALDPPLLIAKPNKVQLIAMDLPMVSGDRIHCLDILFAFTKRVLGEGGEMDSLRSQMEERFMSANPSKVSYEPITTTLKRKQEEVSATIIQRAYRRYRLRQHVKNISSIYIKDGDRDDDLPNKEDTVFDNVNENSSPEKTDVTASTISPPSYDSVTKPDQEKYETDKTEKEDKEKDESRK

CN1C(=O)CN=C(c2ccccc2)c2cc(Cl)ccc21 [Diazepam]
Inhibition of veratridine-induced pain-like behaviors (licking and paw-flinching) (male rats): ineffective
Significant Reversal of Edema (male rats): No
Significant Reversal of Flinching (male rats): No
Significant Reversal of Lifting (male rats): No

CNCC[C@H](Oc1cccc2ccccc12)c1cccs1 [Duloxetine, duloxetine]
Inhibition of veratridine-induced pain-like behaviors (licking and paw-flinching) (male rats): inhibited somewhat
Significant Reversal of Edema (male rats): No

NCC1(CC(=O)O)CCCCC1 [Gabapentin, gabapentin]
Inhibition of veratridine-induced pain-like behaviors (licking and paw-flinching) (male rats): not all
Significant Reversal of Edema (male rats): No

Cc1cccc(C)c1OCC(C)N (stereo not shown) [Mexiletine, mexiletine]
Inhibition of veratridine-induced pain-like behaviors (licking and paw-flinching) (male rats): inhibited fully
Significant Reversal of Edema (male rats): Yes
Significant Reversal of Flinching (male rats): Yes
Significant Reversal of Lifting (male rats): Yes
Lifting and flinching behaviors (male rats; po): prevented in a dose-dependent manner
Block of effects of veratridine (total lifting time) (male CD1 mice; mouse, in vivo, ip, 30 mg/kg): blocked
Prevention of lifting/licking response to deltamethrin (male CD1 mice; mouse, in vivo, ip, 30 mg/kg): prevented the lifting/licking response
Prevention of lifting/licking response to grayanotoxin III (male CD1 mice; mouse, in vivo, ip, 30 mg/kg): prevented the lifting/licking response
Prevention of veratridine-induced flinching / lifting/licking (NaV1.7 [1]; mouse, in vivo): prevents the flinching behavior; also recorded: prevented flinching

CN1CC[C@]23c4c5ccc(O)c4O[C@H]2[C@@H](O)C=C[C@H]3[C@H]1C5 [Morphine, morphine]
Inhibition of veratridine-induced pain-like behaviors (licking and paw-flinching) (male rats): inhibited somewhat
Significant Reversal of Edema (male rats): No

COc1ccc2cc([C@H](C)C(=O)O)ccc2c1 [Naproxen, naproxen]
Significant Reversal of Edema (male rats): No

NC1=N[C@H](O)[C@H]2[C@H]3O[C@]4(O)O[C@@H]([C@@H](O)[C@@]2(N1)[C@@H]4O)[C@]3(O)CO [TTX, tetrodotoxin]
IC50 (NaV1.3): 2 to 15 nM
IC50 (NaV1.4): 5 nM
IC50 (NaV1.6): 1 nM
IC50 (NaV1.7 [2]): 4 nM
IC50 (NaV1.8): > 50000 nM

CC1(C)[C@H](C(=O)O[C@H](C#N)c2cccc(Oc3ccccc3)c2)[C@@H]1C=C(Br)Br [deltamethrin]
Lifting/licking response (total flinches) after injection (male CD1 mice; male CD1 mice, 10 microgram suspension dose of deltamethrin): produced a lifting/licking response

CC1(O)CC23CC(O)C4(O)C(CC(O)C4(C)C)C(C)(O)C2CCC1C3O (stereo not shown) [grayanotoxin III]
Lifting/licking response (total flinches) after injection (male CD1 mice; mouse, in vivo): produced a lifting/licking response
Activation of hNaV1.7 (hNaV1.7): activated hNaV1.7; also recorded: activated NaV1.7
Voltage at which sodium currents start to activate (hNaV1.7): −95 mV

COc1ccc(C(=O)O[C@H]2CC[C@@]3(C)[C@@H]4CC[C@@H]5C3(C[C@@]3(O)[C@@H]6CN7C[C@@H](C)CC[C@H]7[C@@](C)(O)[C@@]6(O)[C@@H](O)C[C@@]53O)O[C@]24O)cc1OC [veratridine, 4α,9-Epoxy-3β-veratroyloxy-5β-cevan-4β,12,14,16β,17,20-hexaol]
Pain-related behaviors (paw lifting/licking, flinching) after injection into the paw (male rats): caused two separate pain-related behaviors
Side effects at higher doses (male rats): variable neurological side effects
Lifting behavior after i.pl. injection (male CD1 mice; mouse, in vivo): caused equivalent lifting behavior
Flinching response to paw injection (NaV1.7 [1]; global NaV1.7 knockout mice): no flinching or licking behavior; also recorded: no effect; also recorded: no response
Flinching response to paw injection (NaV1.7 [1]; wild type heterozygote mice): robust flinching behavior; also recorded: robust flinching response
